From patent US20190255073A1, “ESTERS OF 3-POLYAMINE DERIVATIVES OF BILE ACIDS FOR THE TREATMENT OF INFECTIONS” (VIRBAC, priority 2016, published 2019)
Converted amounts (≈) assume the structure as drawn. Where two headings read alike, the source gives them in different places.

What was measured:
S. intermedius (1051997) = assay: MIC determination by microplate dilution, S. intermedius animal strain; type: cell-based, Staphylococcus intermedius; conditions: Staphylococcus intermedius, Gram-positive, Mueller-Hinton medium, 24 h, 37° C.
Description: (§1) 1) Preparation of the Preculture
(§2) A negative control (2 mL of sterile culture medium)
(§3) A positive control (1940 μL of culture medium+40 μL of DMSO+20 μL of bacterial suspension) from a thawed biological strain (the biological strains are stored at −80° C. in glycerol).
(§4) The tubes were incubated at 37° C. for 24 hours at 100 rpm.
(§5) The microorganisms were handled under a type L2 laboratory fume cupboard and, before any handling, a UV cycle was programmed and only sterile material was used. […] The chemical compounds to be tested were prepared in a DMSO/methanol mixture (50/50) at a concentration of 5 mg/mL.
(§6) 2) Preparation of the Microplate for the Determination of the Minimum Inhibitory Concentration (MIC)
(§7) After 24 hours of incubation, a measurement of the optical density was taken using a spectrophotometer at 600 nm, collecting 100 μL of the bacterial suspension diluted in 900 μL of the sterile culture medium. This test required the use of a 96-well plate and the required volume of the microbial suspension to be seeded was calculated for an OD corresponding to a value equal to 0.01 in each well. In this plate, the first line corresponded to the negative control (195 μL of sterile culture medium in each well), the second line to the positive control (seeded culture medium supplemented with 2% of DMSO), the third line was loaded twice with bacterial suspension, 8 μL of test product were placed in each well. Thereafter, a 0.5 cascade dilution was performed from this line.
(§8) The first column served as inhibition control. A sterile filter was then placed on the microplate, allowing the passage of gases but not of contaminants. The microplate was incubated at 37° C. under a humid atmosphere for 24 hours.
(§9) NB: The medium used is Mueller-Hinton (MH) medium for bacteria. All the tests were performed in duplicate.
(§10) 4) Reading of the Results
(§11) After incubation, the filter was replaced with a transparent film, and an OD reading was then taken in an iEMS plate spectrophotometer at 620 nm. Calculation of the minimum inhibitory concentration (MIC) was performed.

S. aureus (340) = assay: MIC determination by microplate dilution, S. aureus animal strain; type: cell-based, Staphylococcus aureus; conditions: Staphylococcus aureus, Gram-positive, Mueller-Hinton medium, 24 h, 37° C.
Description: as §1, §2, §3, §4, §5, §6, §7, §8, §9, §10, §11

P. aeruginosa (1051575) [1] = assay: MIC determination by microplate dilution, P. aeruginosa animal strain; type: cell-based, Pseudomonas aeruginosa; conditions: Pseudomonas aeruginosa, Gram-negative, Mueller-Hinton medium, 24 h, 37° C.
Description: as §1, §2, §3, §4, §5, §6, §7, §8, §9, §10, §11

P. aeruginosa (1051575) [2] = assay: Potentiation of the doxycycline activity at 2 μg/mL; type: cell-based, Pseudomonas aeruginosa; conditions: in combination with doxycycline 2 μg/mL; 24 h, 37°
E. coli (1956) = assay: MIC determination by microplate dilution, E. coli animal strain; type: cell-based, Escherichia coli; conditions: Escherichia coli, Gram-negative, Mueller-Hinton medium, 24 h, 37° C.
Description: as §1, §2, §3, §4, §5, §6, §7, §8, §9, §10, §11

E. coli ATCC28922 = assay: MIC determination by microplate dilution, E. coli human strain; type: cell-based, Escherichia coli; conditions: Escherichia coli, ATCC28922, Gram-negative, Mueller-Hinton medium, 24 h, 37° C.
Description: as §1, §2, §3, §4, §5, §6, §7, §8, §9, §10, §11

S. aureus ATCC25923 = assay: MIC determination by microplate dilution, S. aureus human strain; type: cell-based, Staphylococcus aureus; conditions: Staphylococcus aureus, ATCC25923, Gram-positive, Mueller-Hinton medium, 24 h, 37° C.
Description: as §1, §2, §3, §4, §5, §6, §7, §8, §9, §10, §11

E. faecalis ATCC29212 = assay: MIC determination by microplate dilution, E. faecalis human strain; type: cell-based, Enterococcus faecalis; conditions: Enterococcus faecalis, ATCC29212, Gram-positive, Mueller-Hinton medium, 24 h, 37° C.
Description: as §1, §2, §3, §4, §5, §6, §7, §8, §9, §10, §11

P. aeruginosa ATCC27853 = assay: MIC determination by microplate dilution, P. aeruginosa human strain; type: cell-based, Pseudomonas aeruginosa; conditions: Pseudomonas aeruginosa, ATCC27853, Gram-negative, Mueller-Hinton medium, 24 h, 37° C.
Description: as §1, §2, §3, §4, §5, §6, §7, §8, §9, §10, §11

CHO-K1 cells = assay: WST1 cytotoxicity test on CHO-K1 cells; type: cell-based, Chinese hamster; conditions: Cricetulus griseus, read-out: IC50 (μg/mL) CHO
Description: Test WST1 was used to measure the cytotoxic activity of the products. This is a colorimetric test which makes it possible to measure the viability and the degree of cell proliferation. It is based on cleavage of the colorless tetrazolium salts WST-1 (4-[3-(4-iodophenyl)-2-(4-nitrophenyl)-2H-5-tetrazolio]-1,3-benzene disulfonate) with mitochondrial dehydrogenases to the yellow-colored formazan derivative, which may be quantified by spectrophotometry at 420-480 nm.
The WST1 test was performed on Chinese hamster ovary cells. The CHO-K1 cells (ATCC, USA) are kept in culture on McCoy's 5A medium supplemented with 10% fetal calf serum, 2 mM of L-glutamine and a mixture of penicillin-streptomycin (100 U/ml: 10 μg/mL). The culture is incubated at 37° C. under an atmosphere enriched in CO2 (5%), and subcultured every two days.
The cells are transferred into 96-well plates (25 000 cells/mL) in whole McCoy's 5A medium, and maintained for 24 hours at 37° C. under a humid atmosphere enriched in CO2 (5%). Increasing concentrations of test products are added to the wells in double tests and 8 growth controls containing the cells in the medium alone are included in each series of tests. After 24 hours at 37° C. (5% CO2), the culture medium is removed, the cells are rinsed in phosphate buffer (PBS) and 50 μL of PBS containing 10% of reagent WST1 are added to each well. After 20 minutes of incubation at 37° C., the results are read by spectrophotometry at 450 nm.
The results are expressed in dose-response relationships, modeled by nonlinear regression analysis using the TableCurve software. The 50% inhibitory concentration (IC50) represents the concentration of product that is capable of reducing the cell viability by 50%.

[3] = Table III, WST1, CHO-K1 cells, 24 h, concentration reducing cell viability by 50%

Structure (SMILES)	MIC (S. intermedius (1051997))	MIC (S. aureus (340))	MIC (P. aeruginosa (1051575) [1])	MIC - P. aeruginosa (1051575): content of compound of formula (I) to restore the doxycycline activity (at 2 μg/mL) (P. aeruginosa (1051575) [2])	MIC (E. coli (1956))	MIC (E. coli ATCC28922)	MIC (S. aureus ATCC25923)	MIC (E. faecalis ATCC29212)	MIC (P. aeruginosa ATCC27853)	IC50 (CHO-K1 cells; CHO-K1, 24 h)	IC50 (CHO-K1 cells; [3])
CC(C)OC(=O)CC[C@@H](C)[C@H]1CCC2C3C(CC[C@@]21C)[C@@]1(C)CC[C@H](NCCCN(CCCN)CCCN)CC1C[C@@H]3O (stereo partly drawn) [(42), isopropyl 3β-(tris(3-aminopropyl)amine)ursodeoxycholate]	15 mg/L (≈ 24.8 µM)	30 mg/L (≈ 49.6 µM)	60 mg/L (≈ 99.2 µM)	4 mg/L	120 mg/L (≈ 198 µM)						
CC(C)OC(=O)CC[C@@H](C)[C@H]1CCC2C3C(C[C@H](O)[C@@]21C)[C@@]1(C)CC[C@H](NCCCN(CCCN)CCCN)CC1C[C@H]3O (stereo partly drawn) [(34), isopropyl 3β-(tris(3-aminopropyl)amine)cholate]	7 mg/L (≈ 11.3 µM)	15 mg/L (≈ 24.2 µM)	30 mg/L (≈ 48.3 µM)	4 mg/L	30 mg/L (≈ 48.3 µM)	30 mg/L (≈ 48.3 µM)	15 mg/L (≈ 24.2 µM)	30 mg/L (≈ 48.3 µM)	30 mg/L (≈ 48.3 µM)		
COC(=O)CC[C@@H](C)[C@H]1CCC2C3C(C[C@H](O)[C@@]21C)[C@@]1(C)CC[C@H](NCCCNCCCN)C[C@H]1C[C@H]3O (stereo partly drawn) [Compound (5), methyl 3β-norspermidinocholate]	2 mg/L (≈ 3.73 µM)	7 mg/L (≈ 13.1 µM)			27 mg/L (≈ 50.4 µM)	14 mg/L (≈ 26.1 µM)	3 mg/L (≈ 5.6 µM)	3 mg/L (≈ 5.6 µM)	7 mg/L (≈ 13.1 µM)		
COC(=O)CC[C@@H](C)[C@H]1CCC2C3CCC4C[C@@H](NCCCNCCCN)CC[C@]4(C)C3CC[C@@]21C (stereo partly drawn) [(18), methyl 3β-norspermidinolithocholate]	0.7 mg/L (≈ 1.39 µM)	0.7 mg/L (≈ 1.39 µM)	3 mg/L (≈ 5.95 µM)	3 mg/L	3 mg/L (≈ 5.95 µM)	32 mg/L (≈ 63.5 µM)				80 µg/mL (≈ 159 µM)	
COC(=O)CC[C@@H](C)[C@H]1CCC2C3CCC4C[C@@H](NCCCNCCCNCCCN)CC[C@]4(C)C3CC[C@@]21C (stereo partly drawn) [Compound (17), methyl 3β-norsperminolithocholate]	4 mg/L (≈ 7.13 µM)	4 mg/L (≈ 7.13 µM)	7 mg/L (≈ 12.5 µM)		7 mg/L (≈ 12.5 µM)	28 mg/L (≈ 49.9 µM)	16 mg/L (≈ 28.5 µM)	4 mg/L (≈ 7.13 µM)	28 mg/L (≈ 49.9 µM)		14 µg/mL (≈ 25 µM)
COC(=O)CC[C@@H](C)[C@H]1CCC2C3CCC4C[C@@H](NCCNCCNCCNCCNCCN)CC[C@]4(C)C3CC[C@@]21C (stereo partly drawn) [(25), methyl 3β-(pentaethylenehexamine)lithocholate]	4 mg/L (≈ 6.61 µM)	8 mg/L (≈ 13.2 µM)	60 mg/L (≈ 99.2 µM)		30 mg/L (≈ 49.6 µM)	30 mg/L (≈ 49.6 µM)	8 mg/L (≈ 13.2 µM)	15 mg/L (≈ 24.8 µM)	60 mg/L (≈ 99.2 µM)		76 µg/mL (≈ 126 µM)
CC(C)OC(=O)CC[C@@H](C)[C@H]1CCC2C3C(CC[C@@]21C)[C@@]1(C)CC[C@H](NCCNCCNCCNCCNCCN)CC1C[C@@H]3O (stereo partly drawn) [(24), isopropyl 3β-(pentaethylenehexamine)ursodeoxycholate]	8 mg/L (≈ 12.3 µM)	32 mg/L (≈ 49.3 µM)	130 mg/L (≈ 200 µM)		65 mg/L (≈ 100 µM)						
